Reference: PubChem BioAssay AID463204 (Broad Institute, 2010)
The source made the active and inactive calls.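 How the source made its calls: active means AC50 no more than ten times the top concentration tested, that is within one log above it; inconclusive means flat curve fit with activity between 30% and 70%, or invalid poor fit; inactive means AC50 beyond ten times the top tested dose.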

The compounds below were run on S. cerevisiae Mot1-301 ts growth rescue, BacTiter-Glo ATP luminescence (assay: restored Mot1-301 yeast growth at 38.5C – whole organism, S. cerevisiae, Mot1-301 ts mutant, luminescence, dose retest, SUMOylation pathway inhibitor project, confirmation (AID 463204);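 further: growth at restrictive 38.5 degrees C of Mot1-301 OY566 strain; actives raise luminescence by restoring growth of the ts mutant at high temperature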).

**Q.** How did the AC50 turn out when `COc1ccccc1NC(=O)COC(=O)CC(C)(C)CC1=NS(=O)(=O)c2ccccc2N1` was run?
**A.** > 42 µM (inactive)

**Q.** With `Cc1n[nH]c(=O)nc1NCc1ccc(Cl)cc1` as the compound, how does the AC50 read?
**A.** > 42 µM (inactive)

**Q.** `COCC(=O)n1nc(-c2ccc(Cl)cc2)nc1NCc1ccc(F)cc1` was tested. Which AC50 did it give?
**A.** > 42 µM (inactive)

**Q.** For `CC(=O)Nc1nn(C)c2nc3ccc(C)cc3cc12`, which AC50 is on record?
**A.** > 42 µM (inactive)

**Q.** `COc1cc([N+](=O)[O-])cc(/C=N/NC(=O)c2cc(C)nc3ccccc23)c1O` was tested. Which AC50 did it give?
**A.** > 42 µM (inactive)

**Q.** How did the AC50 turn out when `Cc1ccc(Nc2cc(C)nc3c(C)ccc([N+](=O)[O-])c23)cc1` was run?
**A.** 13.8 µM

**Q.** Which AC50 does the source give for `Cc1nnc(N=c2ssnc2Cl)o1` here?
**A.** 3.31 µM

**Q.** How did the AC50 turn out when `O=c1c2ccccc2nc(COc2ccccc2)n1/N=C/c1cn[nH]c1-c1ccccc1` was run?
**A.** > 42 µM (inactive)

**Q.** For `COc1ccc(OCC(=O)O/N=C(\N)Cc2ccc(Cl)cc2)cc1`, which AC50 is on record?
**A.** > 42 µM (inactive)

**Q.** With `CCOC(=O)C1=C(C)NC(C)=C(C(=O)OCC)C1C(=O)OC1CCOC1=O` (stereo not given) as the compound, how does the AC50 read?
**A.** > 42 µM (inactive)

**Q.** Which AC50 does the source give for `CCOC(=O)c1cnc2oc3ccccc3n2c1=O` here?
**A.** > 42 µM (inactive)

**Q.** For `Cc1ccc2c(c1)N(CC(=O)NCCCN1CCN(C)CC1)C(=O)CO2`, which AC50 is on record?
**A.** > 42 µM (inactive)

**Q.** How did the AC50 turn out when `O=C1Nc2ccccc2/C1=C/c1ccc([N+](=O)[O-])cc1` was run?
**A.** > 42 µM (inactive)

**Q.** For `CCCCNS(=O)(=O)c1ccc2c(c1)oc(=O)n2CC(=O)OCC`, which AC50 is on record?
**A.** > 42 µM (inactive)

**Q.** How did the AC50 turn out when `Cc1ccc(S(=O)(=O)NCc2ccc(C(=O)N3CCN(c4ccccn4)CC3)cc2)cc1` was run?
**A.** > 42 µM (inactive)

**Q.** With `CN(C(=O)COC(=O)c1cc(-c2ccc(Cl)s2)nc2ccccc12)C1CCS(=O)(=O)C1` (stereo not given) as the compound, how does the AC50 read?
**A.** > 42 µM (inactive)

**Q.** For `CCCCC1=CC2=CC(=O)C(C)(OC(=O)CC)C(=O)C2=CN1CCc1ccc(Br)cc1` (stereo not given), which AC50 is on record?
**A.** > 42 µM (inactive)

**Q.** With `O=C(N/N=C\c1cn(-c2ccccc2)nc1-c1ccccc1)c1ccc(Br)o1` as the compound, how does the AC50 read?
**A.** > 42 µM (inactive)

**Q.** With `CC1CC(C)(C)N(C(=O)CN2C(=O)CCC2=O)c2ccccc21` (stereo not given) as the compound, how does the AC50 read?
**A.** > 42 µM (inactive)

**Q.** `CC(=O)c1ccccc1C(=O)N1CCCC(N2CCN(Cc3ccc4c(c3)OCO4)CC2)C1` (stereo not given) was tested. Which AC50 did it give?
**A.** > 42 µM (inactive)

**Q.** With `O=[N+]([O-])c1c(NCCCO)cc(Sc2nc3ccccc3s2)c2nonc12` as the compound, how does the AC50 read?
**A.** 40 µM

**Q.** How did the AC50 turn out when `COc1ccc(C2CC(c3cccs3)=NN2C(=O)c2ccccc2)cc1OC` (stereo not given) was run?
**A.** > 42 µM (inactive)

**Q.** With `O=C(C1CCN(C2CC(=O)N(c3cccc(Cl)c3)C2=O)CC1)N1CCCC1` (stereo not given) as the compound, how does the AC50 read?
**A.** 7.84 µM

**Q.** For `CCOC(=O)N1CCN(S(=O)(=O)c2ccc(C)c(C)c2)CC1`, which AC50 is on record?
**A.** > 42 µM (inactive)

**Q.** Which AC50 does the source give for `CSCC[C@H](NC(=O)CC(C)(C)C)c1nc2ccccc2[nH]1` here?
**A.** > 42 µM (inactive)

**Q.** With `COc1ccc(N2CCN(C3CCCN(Cc4cccc(OC)c4)C3)CC2)cc1` (stereo not given) as the compound, how does the AC50 read?
**A.** > 42 µM (inactive)

**Q.** Which AC50 does the source give for `O=C1CCC(/C=C/c2ccccc2)=NN1Cc1ccc(Cl)c(Cl)c1` here?
**A.** > 42 µM (inactive)

**Q.** `NC(=O)C1CCN(C2CC(=O)N(c3ccc(F)c(Cl)c3)C2=O)CC1` (stereo not given) was tested. Which AC50 did it give?
**A.** 7.8 µM

**Q.** How did the AC50 turn out when `Cc1ccc(C(=O)N/C(=C/c2ccccc2)C(=O)NCC2CCCO2)cc1` (stereo not given) was run?
**A.** > 42 µM (inactive)

**Q.** `Cc1ccccc1C(=O)NNC(=O)/C=C\C(=O)O` was tested. Which AC50 did it give?
**A.** > 42 µM (inactive)

**Q.** With `COc1cc2c(=O)n(-c3ccc(C)cc3)c(=O)n(CC(=O)c3ccc4c(c3)OCO4)c2cc1OC` as the compound, how does the AC50 read?
**A.** > 42 µM (inactive)

**Q.** Which AC50 does the source give for `COc1ccc(/C=N/NC(=O)CCC(=O)Nc2ccccc2)cc1OC` here?
**A.** > 42 µM (inactive)

**Q.** How did the AC50 turn out when `CO/N=C/c1ccc(Oc2ccc(C)cc2)nc1` was run?
**A.** > 42 µM (inactive)

**Q.** For `COC(=O)c1ccc(CSc2nnnn2-c2ccccc2)o1`, which AC50 is on record?
**A.** > 42 µM (inactive)

**Q.** For `CC(C)c1ccc(NC(=O)COc2nnc(-c3cccs3)c(-c3cccs3)n2)cc1`, which AC50 is on record?
**A.** > 42 µM (inactive)

**Q.** How did the AC50 turn out when `O=C(c1ccccc1F)N1CCCc2ccccc21` was run?
**A.** > 42 µM (inactive)

**Q.** `COc1ccc2[nH]cc(CCNS(=O)(=O)c3ccc(C)cc3)c2c1` was tested. Which AC50 did it give?
**A.** > 42 µM (inactive)

**Q.** `Cc1ccc(S(=O)(=O)N2CCN(C(=O)CSc3nc(N)cc(=O)[nH]3)CC2)c(C)c1` was tested. Which AC50 did it give?
**A.** > 42 µM (inactive)

**Q.** With `C#CCn1c(=NC(=O)CN2C(=O)CCC2=O)sc2cccc(OC)c21` as the compound, how does the AC50 read?
**A.** > 42 µM (inactive)

**Q.** With `Nc1cc(-c2ccc(Cl)cc2)nn1S(=O)(=O)c1ccc(Cl)cc1` as the compound, how does the AC50 read?
**A.** > 42 µM (inactive)

**Q.** `CCOc1cc(/C=N/NC(=O)C(=O)N/N=C/c2ccc(O)c(OCC)c2)ccc1O` was tested. Which AC50 did it give?
**A.** > 42 µM (inactive)

**Q.** `CCN1C(=S)N[C@@H](CCc2ccccc2)C(C(=O)OC)=C1C` was tested. Which AC50 did it give?
**A.** > 42 µM (inactive)

**Q.** `C=CSc1sc(Cl)c(N(C)C)c1[N+](=O)[O-]` was tested. Which AC50 did it give?
**A.** > 42 µM (inactive)

**Q.** How did the AC50 turn out when `COc1ccc(C(=O)OCC(=O)c2ccc(C)c(S(=O)(=O)N3CCOCC3)c2)cc1OC` was run?
**A.** > 42 µM (inactive)

**Q.** `CC/C(=N\NC(=O)c1nnn(-c2nonc2N)c1-c1cccs1)c1ccccc1` was tested. Which AC50 did it give?
**A.** > 42 µM (inactive)

**Q.** Which AC50 does the source give for `CCNC(=O)NC(C(=O)OC)C12CC3CC(CC(C3)C1)C2` (stereo not given) here?
**A.** > 42 µM (inactive)

**Q.** Which AC50 does the source give for `Cn1cccc1CC(=O)N/N=C/c1cccc([N+](=O)[O-])c1` here?
**A.** > 42 µM (inactive)

**Q.** With `Cc1nc(N/N=C\c2ccc3c(c2)OCO3)sc1C` as the compound, how does the AC50 read?
**A.** 33.5 µM

**Q.** How did the AC50 turn out when `Cc1ccccc1Nc1c([N+](=O)[O-])ccc2c1=NC1(CCCCC1)N=2` was run?
**A.** > 42 µM (inactive)

**Q.** For `CCC1=Nc2cc(C(=O)NCc3ccco3)ccc2Sc2ccccc21`, which AC50 is on record?
**A.** > 42 µM (inactive)
